Test results taken from patent US20130309695A1, “METHODS OF DIAGNOSING ASTHMA” (UNIVERSITY OF MANITOBA, priority 2010, published 2013).

B1: IL-4: cytokine used to stimulate HASMC (protein, UniProt P05112 25-153, looked up)
Interleukin-4: HKCDITLQEIIKTLNSLTEQKTLCTELTVTDIFAASKNTTEKETFCRAATVLRQFYSHHEKDTRCLGATAQQFHRHKQLIRFLKRLDRNLWGLAGLNSCPVKEANQSTLENFLERLKTIMREKYSKCSS

Tests used:
[1] = system: TNF-α-mediated PTX3 release from HASMC; assay: Effect of MAPK inhibitors on TNF-α-induced PTX3 release from HASMC (ELISA); format: cell-based, human; conditions: 10 μM, 1 h pretreatment, then TNF-α 10 ng/ml for 24 h
Description: (§1) Confluent HASMC (passages 2-5) were growth-arrested by FBS deprivation for 48 h in Ham's F-12 medium containing 5 μg/ml human recombinant insulin, 5 μg/ml human transferrin, 5 ng/ml selenium, and antibiotics (100 U/ml penicillin and 100 μg/ml streptomycin). Cells were then stimulated in fresh FBS-free medium containing graded concentration (0.1, 1, 10, and 100 ng/ml) of human TNF-α, IL-4, PTX3 or medium alone. In some experiments, cells were pretreated for 1 h with U-0126 (10 μM), SB-203580 (10 μM), or SP600125 (50 nM) before stimulation for 24 h with TNF-α (10 ng/ml), at 10 ng/ml. Supernatants were collected at 24 and 48 h, centrifuged at 1,200 rpm for 7 min at 4° C. to remove cellular debris, and stored at −80° C. until analysis by ELISA.
(§2) Immunoreactive PTX3 within the supernatants was quantified using ELISA with matched antibodies according to basic laboratory protocols provided by the manufacturer (R&D Systems Inc., Minneapolis, Minn.). PTX3 protein was quantified in reference to serial dilutions of recombinant standards falling within the linear part of the standard curve for each specific PTX3 measured. Each data point represents readings from a minimum of four independent assays wherein each assay was performed in duplicate.
One of the major downstream pathways for TNF-α-induced cell activation is MAPKs, which play an important role in cells for inflammatory response. Growth-arrested HASMC cells were left unstimulated (medium alone) or treated with 10 ng/ml TNF-α for 24 h, with or without pretreatment for 1 h with inhibitors of JNK (SP600125 50 nM), p42/p44 ERK (U-0126, 10 μM) and p38 MAPK (SB-203580, 10 μM).

PTX3 release from HASMC = assay: PTX3 protein release from HASMC into the supernatant (ELISA); format: cell-based, human; conditions: growth-arrested HASMC, 24 h, 0.1, 1, 10 ng/ml
Description: as §1, with “Supernatants were collected at 24 and 48 h, centrifuged at 1,200 rpm for 7 min at 4° C. to remove cellular debris, and stored at −80° C. until analysis by ELISA.” left out
as §2
Assessments were made of the effects of dosage and exposure time of TNF-α on HASMC. […] For both experiments, HASMC were stimulated with 0.1, 1, 10 or 100 ng/ml TNF-α, or medium alone for 24 h after which, PTX3 was measured by ELISA.

[2] = system: PTX3 mRNA expression in human airway smooth muscle cells (HASMC); assay: PTX3 mRNA expression in cultured HASMC (RT-PCR / real-time RT-PCR); format: cell-based
Description: as §1
Confluent HASMC (passages 2-5) were growth-arrested for 48 h in serum-free medium as described above. Cells were then stimulated in fresh FBS-free medium containing human recombinant TNF-α (10 ng/ml), IL-4, or medium alone for 2, 6, and 24 h. Cells were harvested, and total cellular RNA was extracted using TRIzol® method (Invitrogen Life Technologies, Gaithersburg, Md.). The RNA concentration and purity were assessed with optical density measurements. […] Amplified products were analyzed by DNA gel electrophoresis in 2% agarose and visualized by ethidium bromide staining under ultraviolet illumination. […] The PTX3 level was quantified by scanning densitometry and corrected for GAPDH in the same sample. […]
Total cellular RNA extraction and reverse transcription was performed as described above. […] The amount of extracted DNA was quantified by spectrophotometry and expressed as copy number. […] For real-time quantitative PCR, each reaction contained the following: 1× LightCycler® DNA Master SYBR Green I (Roche), 25 mM MgCl2, 0.5 μM each primer, 0.07 μM TaqStart® Ab (Clontech), and 10 μl (1:10 for PTX3 and 1:80 for GAPDH) of cDNA, in a final volume of 25 μl. […]

| Molecule | effect on TNF-α-induced PTX3 release [1] | PTX3 release from HASMC (PTX3 release from HASMC) | further results |
| --- | --- | --- | --- |
| C[S+]([O-])c1ccc(-c2nc(-c3ccncc3)c(-c3ccc(F)cc3)[nH]2)cc1 (centres unmarked) [SB-203580, 4-(4-fluorophenyl)-2-(4-methyl-sulfinylphenyl)-5-(4′-pyridyl)-1H-imidazole] | no effect | – | – |
| TNF-α | – | induced the release of PTX3 in a dose-dependent manner | fold increase of PTX3 mRNA compared with unstimulated cells ([2]; 10 ng/mL, 6 h, ratio to GAPDH, mean±SD of three experiments): 30.93±11.25 fold; time of peak PTX3 mRNA response ([2]; 10 ng/ml, stimulated 2, 6 and 24 h, real-time RT-PCR): 6 h |
| N#CC(=C(N)Sc1ccccc1N)C(C#N)=C(N)Sc1ccccc1N [U-0126, 1,4-diamino-2,3-dicyano-1,4-bis(2-aminophenylthio)butadiene] | significant inhibition | – | effect on TNF-α-induced PTX3 release ([1]; listed as U0126): abrogate |
| B1 | – | No significant PTX3 release | effect on PTX3 mRNA expression ([2]; 6 h, data not shown): no significant effect |
